Assay: xn = mol fraction of the nth substance listed
Settings: 92.3 kPa, Liquid; for viscosity: Concentric cylinders viscometry; for speed of sound: Frequency=3 MHz, Single path-length method; for mass density: Vibrating tube method

OCCO [1,2-ethanediol] + O
Settings	mass density, 303.15 K [kg/m3]	mass density, 308.15 K [kg/m3]	speed of sound, 303.15 K [m/s]	speed of sound, 308.15 K [m/s]	viscosity, 303.15 K [mPa·s]	viscosity, 308.15 K [mPa·s]
x1 = 0.0101	1000.04	998.43	1523.1	1532.7	–	–
x1 = 0.0201	1004	1002.32	1536.3	1544.8	–	–
x1 = 0.0302	1007.88	1006.13	1549.1	1556.6	–	–
x1 = 0.0407	1011.76	1009.9	1561.7	1568.1	–	–
x1 = 0.0494	1014.98	1013.02	–	–	1.164	1.059
x1 = 0.0506	1015.24	1013.36	1573	1578.4	–	–
x1 = 0.0605	1018.73	1016.68	1583.6	1588	–	–
x1 = 0.0704	1022.12	1019.92	1594	1597.4	–	–
x1 = 0.0801	1025.1	1022.9	1602.9	1605.7	–	–
x1 = 0.0905	1028.31	1026.05	1612.5	1614.3	–	–
x1 = 0.0986	1030.68	1028.37	–	–	1.555	1.38
x1 = 0.0997	1031.05	1028.71	1620.2	1621.3	–	–
x1 = 0.1483	1043.73	1041.14	–	–	1.99	1.741
x1 = 0.1493	1044.06	1041.45	1654.1	1652	–	–
x1 = 0.1985	1054.47	1051.74	1676.9	1672.2	–	–
x1 = 0.2072	1056.16	1053.32	–	–	2.564	2.226
x1 = 0.2466	1063	1060.02	–	–	2.965	2.572
x1 = 0.2487	1063.38	1060.37	1690.5	1684.2	–	–
x1 = 0.298	1070.45	1067.33	–	–	3.541	3.066
x1 = 0.2998	1070.7	1067.57	1698.3	1690.6	–	–
x1 = 0.3318	1074.59	1071.38	1700.5	1692.2	–	–
x1 = 0.3399	1075.52	1072.31	–	–	4.029	3.48
x1 = 0.3921	1080.8	1077.51	–	–	4.67	4.026
x1 = 0.3981	1081.34	1077.99	1701.1	1691.7	–	–
x1 = 0.4446	1085.21	1081.86	–	–	5.349	4.605
x1 = 0.4521	1085.69	1082.37	1698.9	1688.8	–	–
x1 = 0.4934	–	1085.26	1695.7	1685.2	–	–
x1 = 0.5007	–	1085.73	–	–	6.109	5.245
x1 = 0.5485	1091.97	–	–	–	6.771	5.811
x1 = 0.552	1092.19	–	1690.2	1679.4	–	–
x1 = 0.5846	1093.94	1090.48	1686.7	1675.8	–	–
x1 = 0.6004	1094.63	1091.17	–	–	7.519	6.445
x1 = 0.6451	1096.63	1093.16	–	–	8.173	7.002
x1 = 0.6481	1096.77	1093.29	1679.9	1668.8	–	–
x1 = 0.6773	1097.96	1094.48	1676.6	1665.3	–	–
x1 = 0.7012	1098.83	1095.34	–	–	9.085	7.725
x1 = 0.7421	1100.21	1096.71	1669.4	1658	–	–
x1 = 0.7435	1100.29	1096.79	–	–	9.808	8.27
x1 = 0.7811	1101.44	1097.94	1665	1653.6	–	–
x1 = 0.7907	1101.74	1098.23	–	–	10.55	8.857
x1 = 0.8497	–	1099.81	1657.7	1646.1	–	–
x1 = 0.8505	–	1099.84	–	–	11.54	9.617
x1 = 0.89	1104.3	1100.78	–	–	12.15	10.11
x1 = 0.9002	1104.55	1101.03	1652.6	1640.9	–	–
x1 = 0.9059	1104.67	1101.15	1652.1	1640.4	–	–
x1 = 0.912	1104.78	1101.26	1651.6	1639.9	–	–
x1 = 0.9299	1105.19	1101.66	1649.8	1638.1	–	–
x1 = 0.9413	1105.43	1101.91	1648.7	1637	–	–
x1 = 0.9495	1105.62	1102.1	1647.8	1636.1	–	–
x1 = 0.9532	1105.68	1102.16	–	–	13.12	10.89
x1 = 0.9546	1105.72	1102.2	1647.5	1635.8	–	–
x1 = 0.9681	1105.98	1102.46	1646.3	1634.6	–	–
x1 = 0.9789	1106.18	–	1645.4	1633.6	–	–
x1 = 0.9893	1106.39	–	1644.3	1632.5	–	–
x1 = 1	1106.71	–	1642.9	1631.2	13.87	11.48
